Patent US11292788B2, “IL-17 and IFN-gamma inhibition for the treatment of autoimmune diseases and chronic inflammation” (Immunic AG, priority 2017, dated 2022)
≈ marks a conversion by molar mass, not a printed value. Where two headings read alike, the source gives them in different places.

Experiments:
[1] = test system: IL-17F; test: Cytokine assay: IL-17F production by human PBMC stimulated with PHA; type: cell-based; settings: IC50 class, read-out: IL-17F Inhib.
Procedure, shortened: (§1)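 Compounds were titrated semilogarithmically for IC50, or screened at 10, 1, 0.1 and 0.01 μM, on healthy-donor PBMC stimulated for 48 h with 2 μg/ml PHA at 1×10^5 cells/well. Cytokines in culture supernatants were then quantified by ELISA or Luminex bead assay.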

[2] = test system: IL-17A; test: Cytokine assay: IL-17A production by human PBMC stimulated with PHA; type: cell-based; settings: IC50 class, read-out: IL-17A Inhib.
Procedure, shortened: as §1

[3] = Microsomal stability: incubation with human liver microsomes, residual parent compound by HPLC-MS/MS; type: in vitro ADME; settings: up to 60 min; for half-life at 1 μM: read-out: t1/2 hLM
Procedure, shortened: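 Compound at 1 μM final with 0.5 mg/ml pooled human liver microsomes and NADPH regenerating system, 0.1 M potassium phosphate pH 7.4, 0.4% DMSO, 37° C, sampled up to 60 min. Residual parent measured by HPLC-MS/MS; half-life and clearance from slope of remaining % of T0.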

[4] = test system: INF-γ; test: Cytokine assay: INF-γ production by human PBMC stimulated with PHA; type: cell-based; settings: IC50 class, read-out: IFN-gamma Inhib.
Procedure, shortened: as §1

[5] = Aqueous solubility in 50 mM phosphate buffer (HPLC/DAD); type: physicochemical; settings: aqueous solubility class; for solubility at 24 h: 50 mM phosphate buffer, 23 °C, pH 7.4, aqueous buffer, kinetic from dmso stock, read-out: aq. solub.
Experimental: To achieve this, the samples (final volume 500 μl, 200 μM compound concentration) were incubated for 24 hours at 23° C. under continuous shaking at 1400 rpm (Thermomixer, Eppendorf) in aqueous phosphate buffers (pH 4.0, 6.0, 7.4 and 9.0) with a final DMSO concentration of 1%. To separate the undissolved compound from the solution, the samples were centrifuged (30 min 18000 g at 23° C.). Supernatants were measured via HPLC equipped with a UV detector and concentrations were calculated according to signals of a standard curve. The standard curve was prepared by diluting a stock solution of each compound (c=0.1 mg/ml; received by adding 10 μl of 20 mM compound in DMSO to 914 μl MeCN) in a certain amount of MeCN to cover a range of 0.1 to 200 μg/ml.

[6] = human liver microsomes 0.5 mg/ml, compound 1 μM, pH 7.4, 37° C.

Structure (SMILES) | IC50 ([1]; Homo sapiens, PBMC) | IC50 ([2]; Homo sapiens, PBMC) | half-life at 1 μM ([3]; pH 7.4, human liver microsomes, 1 μM compound, 0.5 mg/ml HLM, 37° C.) | IC50 ([4]; Homo sapiens, PBMC) | solubility at 24 h [5] | half-life at 1 μM [3, 6] | IC50 [1] | IC50 [2] | IC50 [4] | aq. solub. [5] | t1/2 hLM [3, 6]
[2H]C(C)(O)Cn1ncc(-c2onc(-c3c(F)cccc3Cl)c2COC)c1C(F)(F)F (racemic) [Example 95, 1-{4-[3-(2-chloro-6-fluorophenyl)-4-(methoxymethyl)-1,2-oxazol-5-yl]-5-(trifluoromethyl)-1H-pyrazol-1-yl}(2-^2H)propan-2-ol] | 50 to 500 nM | 50 to 500 nM | > 100 min | 50 to 500 nM | > 10 µM |  |  |  |  |  | 
CC(C)(O)Cn1ncc(-c2onc(-c3c(F)cccc3Cl)c2-c2nccs2)c1C(F)(F)F [Example 1, 1-(4-(3-(2-chloro-6-fluorophenyl)-4-(thiazol-2-yl)isoxazol-5-yl)-5-(trifluoromethyl)-1H-pyrazol-1-yl)-2-methylpropan-2-ol] | 50 to 500 nM | 50 to 500 nM |  | < 50 nM | > 10 µM | > 100 min |  |  |  |  | 
OC1(Cn2ncc(-c3onc(-c4c(F)cccc4Cl)c3-c3nccs3)c2C(F)(F)F)CC1 [Example 2, 1-((4-(3-(2-chloro-6-fluorophenyl)-4-(thiazol-2-yl)isoxazol-5-yl)-5-(trifluoromethyl)-1H-pyrazol-1-yl)methyl)cyclopropanol] | 50 to 500 nM | < 50 nM |  | < 50 nM | 3 to 9.99 µM (≈ 1.45 to 4.84 µg/mL) | 10 to 40 min |  |  |  |  | 
CCOC(=O)c1c(-c2c(F)cccc2Cl)noc1-c1cnn([C@H]2C[C@@](C)(O)C2)c1C(F)(F)F [Example 10, ethyl 3-(2-chloro-6-fluorophenyl)-5-[1-(3-hydroxy-3-methylcyclobutyl)-5-(trifluoromethyl)-1H-pyrazol-4-yl]-1,2-oxazole-4-carboxylate] | < 50 nM | < 50 nM |  | < 50 nM | 3 to 9.99 µM (≈ 1.46 to 4.87 µg/mL) | > 100 min |  |  |  |  | 
COC(=O)c1c(-c2c(F)cccc2Cl)noc1-c1cnn([C@H]2C[C@](C)(O)C2)c1C(F)(F)F [Example 26, methyl 3-(2-chloro-6-fluorophenyl)-5-(1-(3-hydroxy-3-methylcyclobutyl)-5-(trifluoromethyl)-1H-pyrazol-4-yl)isoxazole-4-carboxylate] |  |  |  |  |  | 40 to 100 min | 500 to 5000 nM | 500 to 5000 nM | 500 to 5000 nM | + (+: 1-2.99 μM) | 
COC(=O)c1c(-c2c(F)cccc2Cl)noc1-c1cnn([C@H]2C[C@](C)(O)C2)c1C(F)(F)F [Example 27, methyl 3-(2-chloro-6-fluorophenyl)-5-(1-(3-hydroxy-3-methylcyclobutyl)-5-(trifluoromethyl)-1H-pyrazol-4-yl)isoxazole-4-carboxylate] |  |  |  |  |  |  | < 50 nM | < 50 nM | < 50 nM | ++ (++: 3-9.99 μM) | ++ (++: 40-100 min)
CC(=O)c1c(-c2c(F)cccc2Cl)noc1-c1cnn(C[C@@H](C)O)c1C(F)(F)F [Example 35, 1-[3-(2-chloro-6-fluorophenyl)-5-{1-[(2R)-2-hydroxypropyl]-5-(trifluoromethyl)-1H-pyrazol-4-yl}-1,2-oxazol-4-yl]ethan-1-one] | 50 to 500 nM | 50 to 500 nM |  | 50 to 500 nM | > 10 µM | 40 to 100 min |  |  |  |  | 
C[C@@H](O)Cn1ncc(-c2onc(-c3c(F)cccc3Cl)c2C(=O)NC2CCCC2)c1C(F)(F)F [Example 44, 3-(2-chloro-6-fluorophenyl)-N-cyclopentyl-5-{1-[1-(2R)-2-hydroxypropyl]-5-(trifluoromethyl)-1H-pyrazol-4-yl}-1,2-oxazole-4-carboxamide] | 500 to 5000 nM | 50 to 500 nM |  | 50 to 500 nM | > 10 µM | 2 to 9.99 min |  |  |  |  | 
C[C@]1(O)C[C@H](n2ncc(-c3onc(-c4ccccc4Cl)c3C(=O)OC3CC3)c2C(F)(F)F)C1 [Example 49, cyclopropyl 3-(2-chlorophenyl)-5-(1-(3-hydroxy-3-methylcyclobutyl)-5-(trifluoromethyl)-1H-pyrazol-4-yl)isoxazole-4-carboxylate] |  |  |  |  | 1 to 2.99 µM (≈ 0.482 to 1.44 µg/mL) | > 100 min | < 50 nM | < 50 nM | < 50 nM |  | 
CC(C)(O)Cn1ncc(-c2onc(-c3c(F)cccc3Cl)c2C(=O)OC2CCC2)c1C(F)(F)F [Example 56, cyclobutyl 3-(2-chloro-6-fluorophenyl)-5-[1-(2-hydroxy-2-methylpropyl)-5-(trifluoromethyl)-1H-pyrazol-4-yl]-1,2-oxazole-4-carboxylate] | < 50 nM | < 50 nM |  | < 50 nM | 1 to 2.99 µM (≈ 0.502 to 1.5 µg/mL) | 2 to 9.99 min |  |  |  |  | 
C[C@H](O)Cn1ncc(-c2onc(-c3c(F)cccc3Cl)c2C(=O)OC2CC2)c1C(F)(F)F [Example 59, cyclopropyl 3-(2-chloro-6-fluorophenyl)-5-{1-[(2S)-2-hydroxypropyl]-5-(trifluoromethyl)-1H-pyrazol-4-yl}-1,2-oxazole-4-carboxylate] | < 50 nM | < 50 nM |  | < 50 nM | > 10 µM | 10 to 40 min |  |  |  |  | 
C[C@H](O)Cn1ncc(-c2onc(-c3c(F)cccc3Cl)c2C(=O)OC2COC2)c1C(F)(F)F [Example 60, oxetan-3-yl 3-(2-chloro-6-fluorophenyl)-5-{1-[(2S)-2-hydroxypropyl]-5-(trifluoromethyl)-1H-pyrazol-4-yl}-1,2-oxazole-4-carboxylate] | 50 to 500 nM | 50 to 500 nM |  | 50 to 500 nM | > 10 µM | 10 to 40 min |  |  |  |  | 
CCOCc1c(-c2c(F)cccc2Cl)noc1-c1cnn(C[C@@H](C)O)c1C(F)(F)F [Example 76, (2R)-1-{4-[3-(2-chloro-6-fluorophenyl)-4-(ethoxymethyl)-1,2-oxazol-5-yl]-5-(trifluoromethyl)-1H-pyrazol-1-yl}propan-2-ol] | 50 to 500 nM | 50 to 500 nM |  | < 50 nM | > 10 µM | 10 to 40 min |  |  |  |  | 

Next, values leading:

IC50 ([1]; Homo sapiens, PBMC) | IC50 ([2]; Homo sapiens, PBMC) | half-life at 1 μM ([3]; pH 7.4, human liver microsomes, 1 μM compound, 0.5 mg/ml HLM, 37° C.) | IC50 ([4]; Homo sapiens, PBMC) | solubility at 24 h [5] | half-life at 1 μM [3, 6] | IC50 [1] | IC50 [2] | IC50 [4] | aq. solub. [5] | t1/2 hLM [3, 6] | Structure (SMILES)
50 to 500 nM | < 50 nM |  | < 50 nM | 3 to 9.99 µM (≈ 1.43 to 4.75 µg/mL) | > 100 min |  |  |  |  |  | CCOC(=O)c1c(-c2c(F)cccc2Cl)noc1-c1cnn(CC(C)(C)O)c1C(F)(F)F [Example 8, ethyl 3-(2-chloro-6-fluorophenyl)-5-(1-(2-hydroxy-2-methylpropyl)-5-(trifluoromethyl)-1H-pyrazol-4-yl)isoxazole-4-carboxylate]
< 50 nM | < 50 nM |  | < 50 nM | 3 to 9.99 µM (≈ 1.47 to 4.89 µg/mL) | 40 to 100 min |  |  |  |  |  | CCOC(=O)c1c(-c2c(F)cccc2Cl)noc1-c1cnn(CCC(C)(C)O)c1C(F)(F)F [Example 9, ethyl 3-(2-chloro-6-fluorophenyl)-5-[1-(3-hydroxy-3-methylbutyl)-5-(trifluoromethyl)-1H-pyrazol-4-yl]-1,2-oxazole-4-carboxylate]
< 50 nM | < 50 nM |  | < 50 nM | > 10 µM | 10 to 40 min |  |  |  |  |  | CCOC(=O)c1c(-c2c(F)cccc2Cl)noc1-c1cnn(C[C@@H](C)O)c1C(F)(F)F [Example 12, ethyl 3-(2-chloro-6-fluorophenyl)-5-{1-[(2R)-2-hydroxypropyl]-5-(trifluoromethyl)-1H-pyrazol-4-yl}-1,2-oxazole-4-carboxylate]
< 50 nM | < 50 nM |  | < 50 nM | > 10 µM | 40 to 100 min |  |  |  |  |  | CCOC(=O)c1c(-c2c(F)cccc2Cl)noc1-c1cnn(C[C@H](C)O)c1C(F)(F)F [Example 13, ethyl 3-(2-chloro-6-fluorophenyl)-5-(1-((2S)-2-hydroxypropyl)-5-(trifluoromethyl)-1H-pyrazol-4-yl)-1,2-oxazole-4-carboxylate]
< 50 nM | < 50 nM |  | < 50 nM | > 10 µM | > 100 min |  |  |  |  |  | COC(=O)c1c(-c2c(F)cccc2Cl)noc1-c1cnn(CCC(C)(C)O)c1C [Example 20, methyl 3-(2-chloro-6-fluorophenyl)-5-[1-(3-hydroxy-3-methylbutyl)-5-methyl-1H-pyrazol-4-yl]-1,2-oxazole-4-carboxylate]
50 to 500 nM | 50 to 500 nM |  | < 50 nM | > 10 µM | > 100 min |  |  |  |  |  | COCc1c(-c2c(F)cccc2Cl)noc1-c1cnn(CCC(C)(C)O)c1C(F)(F)F [Example 67, 4-{4-[3-(2-chloro-6-fluorophenyl)-4-(methoxymethyl)-1,2-oxazol-5-yl]-5-(trifluoromethyl)-1H-pyrazol-1-yl}-2-methylbutan-2-ol]
